Test results: US11318141B2, “Methods and compositions related to STK1-targeted small molecules as antibiotic resistance breakers” (Ohio State Innovation Foundation, priority 2017, dated 2022)
≈ marks a conversion by molar mass, not a printed value. Where “and” joins values, the source holds several entries; their conditions need not be identical. Equal values may be shown once. Read-outs that look alike come from different tables or passages of the source.

Assays:
S. aureus MW2-WT [1] = experiment: Time-to-kill assay (OD and CFU counts over 16 h), broth dilution; type: cell-based, Staphylococcus aureus; settings: only 50 μM Inh2-B1, only 1.5 μM Ceftriaxone (1 μg/ml) or only 3 μM Cefotaxime (1 μg/ml), 16 h
Protocol: FIGS. 4A-F show. […] Optical Density and corresponding Colony forming units of (C and D) MW2-WT and (E and F) MW2ΔSTK1 cultures in the presence or absence 50 μM Inh2-B1, 1.51 μM (1 μg/ml) Ceftriaxone, 2.125 μM (1 μg/ml) Cefotaxime, and combination of Inh2-B1 plus Ceftriaxone, and Inh2-B1 plus Cefotaxime. The experiments were carried out as described in the Materials and Method section using Muller-Hinton broth and seeded with 4×10^6 CFUs of S. aureus MW2-Wild type or MW2ΔSTK1 strains per well. Each data points represent Mean±S.D. P values of significance (**=<0.01, ***=<0.001) were determined using the t-test with Welch's corrections. NS—Not significant.
(§1) Subsequently, the susceptibility of S. aureus MW2 strain to Ceftriaxone, Cefotaxime, Inh2, and Inh2-B1 was confirmed by the CLSI recommended serial dilution method using Muller Hinton broth. Minimum bactericidal activity (MBC) was measured using Muller-Hinton agar. Changes in the MBC of Ceftriaxone/Cefotaxime in the presence of serially diluted Inh2-B1 was determined in two steps. Initial screening was carried out using the Checkerboard method using Muller-Hinton agar (FIG. 15). […] Subsequent time to kill assays were carried out using 50 μM Inh2-B1 and Ceftriaxone. Cefotaxime (1 μg/ml) in a final volume of 250 μl using a sterile 96-well (U-bottom) microtiter plate over a period of 16 h at 37° C. under constant rotation (120 rpm). Optical density and corresponding CFU counts were measured at every two-hour interval up to 8 hours with a final overnight reading at the end of incubation period. CFU counts were measured using appropriate dilution of 10 μl of properly mixed samples at each time interval. All experiments were performed in three biological replicates and the statistical analysis of the results obtained at each time point was carried out by the non-parametric t-test with Welch's correction using GraphPad Prism 6 software.

S. aureus MW2-WT [2] = experiment: S. aureus mouse septicemia model, therapeutic study; type: in vivo, CD-1 mice; settings: only Cefotaxime 10 mg/kg
Protocol: The virulence potential of the wild-type S. aureus MW2 wild-type and corresponding MW2ΔSTK1 and MW2ΔSTP1 mutants was assessed using the mouse-septicemia model. CD-1 mice (5 weeks old, 20-22 g. Charles River Laboratories, ten female mice/group and housed in a group of 5 mice/cage) were lightly anesthetized with isoflurane and injected retro-orbitally with the S. aureus MW2 or isogenic MW2Δstk1 mutant (4×10^8 CFU/0.1 ml of PBS). […] For therapeutic studies, the animals were first challenged with MW2-WT strain as described above and subsequently administered with antibiotic and/or small molecule compounds. The latter was started 4 h after the challenge and subsequently 12 h apart for 4 days post infection. Thus, Inh2-B1 (5 mg/kg body weight in 0.3 ml vehicle buffer), Ceftriaxone (10 and 25 mg/kg body weight in 0.3 ml vehicle buffer). Cefotaxime (10 mg/kg body weight), combination of Ceftriaxone (10 mg and 25 mg/kg body weight in 0.3 ml vehicle buffer) or Cefotaxime (10 mg/kg body weight) with Inh2-B1 (5 mg/kg body weight in 0.3 ml vehicle buffer), or 0.3 ml of vehicle-buffer (50 mM Tris/HCl, pH 8.8, 1.67% [v/v] DMSO). Early removal and euthanasia criteria were applied to all experimental mice showing penultimate sign(s) of the unrecoverable stage of illness, including ruffled skin with a hunch back, loss of more than 20% of body mass as compared to unchallenged mice receiving mock treatment, dyspnea, and labored gasping. All experiments were performed twice. Data were combined, and percentage survival in each group was statistically evaluated by the Log-Rank test (Kaplan-Meier) using the GraphPad Prism 6 software. P<0.05 was treated as a significant difference. On Day 3 P.I., 3-6 mice from different groups receiving treatment with a single antibiotic or combination therapy were euthanized and sacrificed, and kidneys were […] for determining the bacterial load, which was determined by counting the colony forming units in the homogenized tissue in sterile PBS buffer.

S. aureus MW2 wild-type = experiment: Checkerboard titration end-point bactericidal assay (MBC), Muller-Hinton agar; type: cell-based, Staphylococcus aureus; settings: for MBC: Staphylococcus aureus, MW2WILDTYPE
Protocol: FIGS. 15A-15B show checkerboard assays for determining bactericidal assay. Serial two-fold dilutions of 2 mM of Inh2-B1 (MW=411.58 g/mol) and (A) 3 mM ceftriaxone (MW=669.7 g/mol) were made in two separate 96-well plates in vertical (B1-B12 to H1-H2 wells) and horizontal (A2-H2 to A12-H12 wells) directions respectively. Serially diluted Inh2-B1 (100 μL) in the individual well was then mixed with the 100 μL serially diluted ceftriaxone present in the corresponding wells. The resulting various combinations of Inh2-B1 (starting from 1 mM) and ceftriaxone (starting from 1.5 mM) or cefotaxime (2.1 mM) as well as serially diluted one Inh2-B1 (B1 to H1) and ceftriaxone (A2-A12) or cefotaxime (A2-A12) were then incorporated in Muller-Hinton mini agar plates (2 mL). The agar plates were then seeded and diluted S. aureus MW2-wild-type culture equivalent to approximately 23±3 CFU. This checkerboard assay was used to determine the ideal combination of lowest concentration of Inh2-B1 and ceftriaxone that kills 99.9% of the wild-type MW2.
Since the STK1 is not essential for bacterial survival and its absence results in retardation of growth, an end-point bactericidal assay was done, employing the Checkerboard titration method followed by a time-to-kill assay using the broth dilution method. The 96-well plate-based checkerboard titration assays were performed using the fixed number of CFUs of MW2 strain, and the survival of the bacteria was measured on solid agar plates as an end-point result. […] The cut-off value to designate clinical isolates of S. aureus for antibiotics, including Ceftriaxone (TX) and Cefotaxime (CT) as susceptible, is less than 4 μg/ml (i.e., <4.8 μM of TX, and <7 μM of CT). […] CFU counts of MW2-WT grown in the presence of various concentrations of Inh2-B1 were examined over a period of 16 h. […] Similarly, it was also determined CFU counts of MW2-WT and MW2ΔSTK1 strains each grown in the absence or the presence of 50 μM of Inh2-B1 and 1.5 μM Ceftriaxone (1 μg/ml) or […] Cefotaxime (1 μg/ml) for 16 h employing the broth dilution method. […] Further, to address whether MW2 or STK1 could become refractory to a potential combined therapy, the S. aureus MW2 wild-type strain was grown in the presence of suboptimal dose of Inh2-B1 alone and combination with Ceftriaxone and Cefotaxime (25 μM Inh2-B1 and 3 μM of Ceftriaxone or 3 μM Cefotaxime) for consecutive 10 generations.
as §1, with “interval.” for “interval. All experiments were performed in three biological replicates and the statistical analysis of the results obtained at each time point was carried out by the non-parametric t-test with Welch's correction using GraphPad Prism 6 software.”

[3] = tested on: S. aureus MW2ΔSTP1 mutant; experiment: E-test antibiotic susceptibility (MIC), Muller-Hinton agar; type: cell-based; settings: Staphylococcus aureus
[4] = tested on: S. aureus MW2ΔSTK1 mutant; experiment: as above; type: cell-based; settings: Staphylococcus aureus
S. aureus MW2-WT [5] = experiment: microbe, parasite or virus in culture; type: cell-based, Staphylococcus aureus; settings: for MIC / susceptibility pattern for MW2 in the presence vs absence of Inh2-B1: E-test, 50 μM Inh2-B1

SMILES | growth pattern of the wild-type, single agent (S. aureus MW2-WT [1]) | time within which all challenged mice died (S. aureus MW2-WT [2]) | MBC (S. aureus MW2 wild-type; agent alone, MW2, read-out: Minimum bactericidal concentration (MBC)) | MBC (S. aureus MW2 wild-type; in the presence of 50 μM of Inh2-B1, read-out: MBC for MW2 in the presence of Inh2-B1) | concentration up to which growth of MW2 was seen (S. aureus MW2 wild-type; agent alone, further analysis) | concentration of wells with ≥1 CFU of wild-type MW2 (S. aureus MW2 wild-type; checkerboard, agent alone) | fold reduction of MBC (S. aureus MW2 wild-type; in the presence of 50 μM of Inh2-B1 vs antibiotic alone) | MIC [3] | MIC [4] | MIC (S. aureus MW2-WT [5]; Staphylococcus aureus, MW2WT) | MIC / susceptibility pattern for MW2 in the presence vs absence of Inh2-B1 (S. aureus MW2-WT [5])
CO/N=C(\C(=O)N[C@@H]1C(=O)N2C(C(=O)O)=C(COC(C)=O)CS[C@H]12)c1csc(N)n1 [Cefotaxime] | remained unaltered | 36 to 48 h | 220 µM and 100 µg/mL | 27.5 µM and 12.5 µg/mL | 176 µM | ≤ 110 µM | 8 fold | > 100 µg/mL | 4 µg/mL (≈ 8.78 µM) | > 100 µg/mL | 
CC[C@H]1OC(=O)[C@H](C)[C@@H](O[C@H]2C[C@@](C)(OC)[C@@H](O)[C@H](C)O2)[C@H](C)[C@@H](O[C@@H]2O[C@H](C)C[C@H](N(C)C)[C@H]2O)[C@](C)(O)C[C@@H](C)C(=O)[C@H](C)[C@@H](O)[C@]1(C)O [Erythromycin] |  |  |  |  |  |  |  |  |  |  | remained unaltered
C[C@@H](O)[C@H]1C(=O)N2C(C(=O)O)=C(S[C@@H]3CN[C@H](C(=O)N(C)C)C3)[C@H](C)[C@H]12 [Meropenem] |  |  |  |  |  |  |  |  |  |  | remained unaltered
